Measured values reported in patent US9139795B2, “Biodegradable lubricant composition” (IDEMITSU KOSAN CO., LTD., priority 2009, dated 2015).

How the values were obtained:
Acid value (JIS K 2501) = assay type: physicochemical; details: base oil ester
[1] = Kinematic viscosity (JIS K 2283); assay type: physicochemical; details: base oil ester
[2] = Saponification value (JIS K 2503); assay type: physicochemical; details: base oil ester
[3] = Biodegradability, modified MITI test method (OECD301C); details: base oil ester alone
Experimental: A biodegradation rate was measured according to the modified MITI test method (OECD301C).

Substance | Acid Value (Acid value (JIS K 2501)) [mgKOH/g] | Viscosity @ 40° C. [1] [mm^2/s] | Saponification Value [2] [mgKOH/g] | Biodegradability [3] [%]
di(pentaerythritol)oleate [Ester E] | 3.30 | 556.8 | 172 | 
trimethylolpropane diisostearate [Ester G] | 0.06 | 105.0 | 176 | 65.0
